Experiments:
Type in all cases: in vivo, rat
rats [1] = experiment: Phase III: dose response to (S)-amlodipine malate in absence and presence of an ARB (co-administration); settings: for dose response curve of ARB plus (S)-amlodipine malate relative to (S)-amlodipine malate alone: ARB at its ED30 dose; for Potential Dosage Adjustment (%) of (S)-amlodipine malate (adjustment factor): co-administration with the named ARB, relative to ED50 92 μg/kg alone
Method: (§1) (S)-amlodipine malate and seven ARBs (candasartan, eprosartan, irbesartan, losartan, olmesartan, telmisartan and valsartan) were evaluated. The study was conducted in three parts. Phase I evaluated the time-course of the hypotensive actions of all eight agents ([S]-amlodipine and the seven ARBs). In Phase II, the dose-responsive effects of [S]-amlodipine malate and the seven ARBs were evaluated individually. From this phase of the study, ED30 and ED50 doses of each of the seven ARBs were identified, defined as the dose that produced 30 or 50 percent of the hypotensive effect produced by a rapid i.v. injection (30 μg/kg) of sodium nitroprusside (NTP), a short-acting vasodilator. In Phase III, the dose response to [S]-amlodipine was evaluated in the presence and absence of the ED30 and ED50 dose of each of the seven ARBs, with the objective of comparing the extent to which each ARB, at its ED30 or ED50, shifted the dose-response curve of [S]-amlodipine to the left and thus, lowering the apparent ED50 of the calcium channel blocker.
(§2) Animals were anesthetized with thiobutabarbital sodium (Inactin®, 150 mg/kg, delivered i.p.), tracheotomized and placed on a thermostatically controlled heating pad (37-38° C.). The jugular vein and the carotid artery were cannulated with PE-50 tubing for drug administration and recording of cardiovascular parameters, respectively. Blood pressure was recorded from the carotid artery by means of a pressure transducer and heart rate was derived electronically from the blood pressure signal. The signal output derived electronically from the arterial pressure was analyzed with a digital computer. The software IOX-16 continuously recorded the data every 5 sec during the entire procedure for each rat. Raw arterial pressure (in mmHg) and heart rate (beats per min), as well as changes in these two parameters relative to baseline or pre-drug levels (for doses other than initial dose), both in raw units (mm Hg or beats per min [bpm]) and as percentage change from baseline were captured and analyzed. The animals were allowed to equilibrate for 15-20 min before any treatment.
(§3) Doses are expressed in terms of free active substance. Each treatment was administered in a volume of 1 mL/kg by slow (over 20-30 seconds) i.v. bolus for all test articles, in all three phases.
(§4) The data were reported as mean ±S.E.M. (standard error of the mean) from 3-5 rats per group. Raw arterial pressure (in mmHg) and heart rate (beats per min), as well as changes in these two parameters relative to baseline or pre-drug levels (for doses other than initial dose), both in raw units (mmHg or beats per min [bpm]) and as percentage change from baseline, were captured and analyzed.
(§5) ED30 and ED50 for each drug were defined as the dose causing a decline in arterial pressure corresponding to 30% and to 50%, respectively, of the maximal drop in blood pressure produced by fast bolus i.v. injection (30 μg/kg) of sodium nitroprusside.
Dose-response curves with (S)-amlodipine malate in the absence and presence of each of the seven ARBs at its ED30 are shown in FIGS. 1A and 1B. The data shown in the figures are from experiments in which ED30 doses of each of the ARBs was combined with (S)-amlodipine malate. These were chosen because ED30 doses were obtainable by direct interpolation of dose response curves from Phase II. For several of the ARBs, doses corresponding to ED50 were obtained from extrapolation of their dose response curves.

rats [2] = experiment: Phase II: dose-response of hypotensive effect, ED30/ED50 relative to sodium nitroprusside
Method: as §1, §2, §3, §4, §5
In this phase, the hypotensive response to sodium nitroprusside (NTP, 30 μg/kg, i.v. bolus), which was injected once at the end of the equilibration period, was used as a comparator and ED30 and ED50 doses were estimated as the percentage of the maximum NTP effect.

rats [3] = settings: anesthetized rats, 100 μg/kg i.v.
Method: as §1
as §2, with “The animals were allowed to equilibrate for 15-20 min before any treatment.” left out

[4] = i.v., anesthetized rats, from dose-response curve

Row | Compound | dose response curve of ARB plus (S)-amlodipine malate relative to (S)-amlodipine malate alone (rats [1]) | ED30 (dose causing 30% of the maximal drop in blood pressure produced by sodium nitroprusside) (rats [2]; [4]) | Potential Dosage Adjustment (%) of (S)-amlodipine malate (adjustment factor) (rats [1]) | other results
1 | CCOc1nc2cccc(C(=O)O)c2n1Cc1ccc(-c2ccccc2-c2nnn[nH]2)cc1 [Candasartan, 2-ethoxy-1-[[2′-(1H-tetrazol-5-yl)[1,1′-biphenyl]-4-yl]methyl]-1H-benzimidazole-7-carboxylic acid] | offset | 0.008 mg/kg | – | decline in MBP at the next higher dose (rats [2]; 300 mg/kg i.v. (so in the source)): no further decline
2 | CCCCC(=O)N(Cc1ccc(-c2ccccc2-c2nnn[nH]2)cc1)[C@H](C(=O)O)C(C)C [Valsartan, N-(1-oxopentyl)-N-[[2′-(1H-tetrazol-5-yl)[1,1′-biphenyl]-4-yl]methyl]-L-valine] | greatest leftward shift | 0.229 mg/kg | 32% | time to maximum hypotensive effect post-injection (rats [3]): five
3 | CCOC(=O)C1=C(COCCN)NC(C)=C(C(=O)OC)[C@@H]1c1ccccc1Cl.O=C(O)C[C@H](O)C(=O)O [(S)-amlodipine malate] | – | 0.056 mg/kg | – | ED50 of (S)-amlodipine malate in the absence of an ARB (rats [1]; i.v., anesthetized rats, Phase III): 0.092 mg/kg; ED50 (dose causing 50% of the maximal drop in blood pressure produced by sodium nitroprusside), estimated (rats [2]; [4]): 0.11 mg/kg; maximum decrease in blood pressure (rats [3]): 14-17 mmHg; time to maximum hypotensive effect post-injection (rats [3]): 35 to 55 min
4 | CCCCc1nc(Cl)c(CO)n1Cc1ccc(-c2ccccc2-c2nnn[nH]2)cc1 [Losartan, 2-butyl-4-chloro-1-[[2′-(1H-tetrazol-5-yl)[1,1′-biphenyl]-4-yl]methyl]-1H-imidazole-5-methanol] | – | – | 15% | –
5 | CCCc1nc2c(C)cc(-c3nc4ccccc4n3C)cc2n1Cc1ccc(-c2ccccc2C(=O)O)cc1 [Telmisartan, 4′-[(1,4′-dimethyl-2′-propyl[2,6′-bi-1H-benzimidazol]-1′-yl)methyl]-[1,1′-biphenyl]-2-carboxylic acid] | offset | – | – | –
6 | CCCCc1ncc(/C=C(\Cc2cccs2)C(=O)O)n1Cc1ccc(C(=O)O)cc1 [Eprosartan, (E)-α-[[2-butyl-1-[(4-carboxyphenyl)methyl]-1H-imidazol-5-yl]methylene]-2-thiophenepropanoic acid] | – | – | 24% | –
7 | CCCCC1=NC2(CCCC2)C(=O)N1Cc1ccc(-c2ccccc2-c2nnn[nH]2)cc1 [Irbesartan, 2-butyl-3-[[2′-(1H-tetrazol-5-yl)[1,1′-bephenyl]-4-yl]methyl]-1,3-diazaspiro[4,4]non-1-en-4-one] | – | – | 23% | –

— patent publication US20050209288A1, “Compositions comprising (S)-amlodipine malate and an angiotensin receptor blocker and methods of their use” (priority 2004, published 2005)
